Data as given in PMC10272180, “Ancient medicinal plant rosemary contains a highly efficacious and isoform-selective KCNQ potassium channel opener” (Communications Biology, 2023).

What was measured:
[1] = biological target: KCNQ3* (KCNQ3-A315T) (Homo sapiens, UniProt O43525, A315T); assay: TEVC of KCNQ3* homomers expressed in Xenopus laevis oocytes; assay type: cell-based
[2] = biological target: T1, KCNQ2/3 (Homo sapiens, UniProt O43525+O43526); assay: TEVC of KCNQ2/3 heteromers expressed in Xenopus laevis oocytes; assay type: cell-based
T1 construct: expressed in transfected cells; host or cells: Xenopus laevis oocytes co-injected with cRNAs
Source text: (§1) We generated cRNA transcripts encoding human KCNQ1, 2, 3, and 5 (wild-type and mutant) by in vitro transcription using the mMessage mMachine kit (Thermo Fisher Scientific, Waltham, MA, USA) according to manufacturer’s instructions, after vector linearization, from cDNA sub-cloned into expression vectors (pTLNx and pXOOM) incorporating Xenopus laevis β-globin 5’ and 3’ UTRs flanking the coding region to enhance translation and cRNA stability. Mutant KCNQ cDNAs were generated by Genscript (Piscataway, NJ, USA) and cRNAs made as above. We injected defolliculated stage V and VI Xenopus laevis oocytes (Xenoocyte, Dexter, MI, USA) with KCNQ cRNAs (2–10 ng) and incubated the oocytes at 16 °C in ND96 oocyte storage solution containing penicillin and streptomycin, with daily washing, for 2–4 days prior to two-electrode voltage-clamp (TEVC) recording.
(§2) We placed oocytes in a small-volume oocyte bath (Warner) and viewed them with a dissection microscope for cellular electrophysiology. We sourced chemicals from Sigma-Aldrich (St. Louis, MO, USA) and Combi-Blocks (San Diego, CA, USA). We studied effects of Salvia rosmarinus extracts and of compounds, solubilized directly in bath solution (in mM): 96 NaCl, 4 KCl, 1 MgCl2, 1 CaCl2, 10 HEPES (pH 7.6). We introduced extracts or compounds into the oocyte recording bath by gravity perfusion at a constant flow of 1 ml per minute for 3 min prior to recording. Pipettes were of 1-2 MΩ resistance when filled with 3 M KCl. […] We analyzed data using Clampfit (Molecular Devices) and Graphpad Prism software (GraphPad, San Diego, CA, USA), stating values as mean ± SEM. We plotted raw or normalized tail currents versus prepulse voltage and fitted with a single Boltzmann function:1 g=(A1−A2)/1+exp[V1/2−V/Vs]y+A2 where g is the normalized tail conductance, A1 is the initial value at -∞, A2 is the final value at +∞, V1/2 is the half-maximal voltage of activation and Vs the slope factor. We fitted activation and deactivation kinetics with single exponential functions.

[3] = biological target: KCNQ2 (Homo sapiens, UniProt O43526); assay: TEVC of KCNQ2 homomers expressed in Xenopus laevis oocytes; assay type: cell-based
Source text: as §1
as §2, with “We performed TEVC at room temperature using an OC-725C amplifier (Warner Instruments, Hamden, CT, USA) and pClamp10 software (Molecular Devices, Sunnyvale, CA, USA) 2–4 days after cRNA injection. We placed” for “We placed”

[4] = system: GABAA receptor; design: method as in PMID 1378214; conditions: rat brain membranes in vitro; cited from earlier work
[5] = system: mice; conditions: acute toxicity; cited from earlier work
[6] = biological target: KCNQ3*-G244A (Homo sapiens, UniProt O43525, A315T/G244A); assay: TEVC of mutant KCNQ3*-G244A in oocytes; assay type: cell-based; conditions: 100 µM
Source text: as §1
We performed TEVC at room temperature using an OC-725C amplifier (Warner Instruments, Hamden, CT, USA) and pClamp10 software (Molecular Devices, Sunnyvale, CA, USA) 2–4 days after cRNA injection. We placed oocytes in a small-volume oocyte bath (Warner) and viewed them with a dissection microscope for cellular electrophysiology. We sourced chemicals from Sigma-Aldrich (St. Louis, MO, USA) and Combi-Blocks (San Diego, CA, USA). We studied effects of Salvia rosmarinus extracts and of compounds, solubilized directly in bath solution (in mM): 96 NaCl, 4 KCl, 1 MgCl2, 1 CaCl2, 10 HEPES (pH 7.6). We introduced extracts or compounds into the oocyte recording bath by gravity perfusion at a constant flow of 1 ml per minute for 3 min prior to recording. Pipettes were of 1-2 MΩ resistance when filled with 3 M KCl. We recorded currents in response to voltage pulses between −120 mV and +40 mV at 10 mV intervals from a holding potential of −80 mV, to yield current-voltage relationships and examine activation kinetics. We analyzed data using Clampfit (Molecular Devices) and Graphpad Prism software (GraphPad, San Diego, CA, USA), stating values as mean ± SEM. […]

[7] = 5 µM, post 3 hrs. incubation 30 µM Wortmannin

KCNQ3* (KCNQ3-A315T), sequence (O43525 whole entry A315T): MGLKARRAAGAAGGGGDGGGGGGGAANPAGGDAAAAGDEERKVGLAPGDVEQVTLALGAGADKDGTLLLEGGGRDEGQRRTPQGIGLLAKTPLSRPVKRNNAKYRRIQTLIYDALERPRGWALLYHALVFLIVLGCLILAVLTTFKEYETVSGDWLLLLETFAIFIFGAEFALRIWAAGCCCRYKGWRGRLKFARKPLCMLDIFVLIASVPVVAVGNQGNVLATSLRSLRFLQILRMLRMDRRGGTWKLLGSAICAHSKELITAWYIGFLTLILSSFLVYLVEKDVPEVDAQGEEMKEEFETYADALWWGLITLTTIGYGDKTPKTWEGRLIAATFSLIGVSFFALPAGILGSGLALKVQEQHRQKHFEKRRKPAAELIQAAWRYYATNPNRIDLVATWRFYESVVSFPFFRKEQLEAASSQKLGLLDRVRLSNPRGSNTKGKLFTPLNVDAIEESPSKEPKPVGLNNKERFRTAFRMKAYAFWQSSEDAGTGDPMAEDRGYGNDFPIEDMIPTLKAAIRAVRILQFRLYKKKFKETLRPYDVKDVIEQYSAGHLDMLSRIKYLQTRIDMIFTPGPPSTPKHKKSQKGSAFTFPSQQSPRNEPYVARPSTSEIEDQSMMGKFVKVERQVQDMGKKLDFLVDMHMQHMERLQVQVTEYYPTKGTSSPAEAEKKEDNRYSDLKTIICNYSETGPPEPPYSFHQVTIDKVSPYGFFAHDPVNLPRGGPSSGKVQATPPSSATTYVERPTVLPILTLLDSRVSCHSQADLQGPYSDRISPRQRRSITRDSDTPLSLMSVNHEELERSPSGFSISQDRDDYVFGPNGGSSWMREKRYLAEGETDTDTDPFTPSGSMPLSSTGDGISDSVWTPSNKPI

Which results are given for `CC(C)c1cc2c(c(O)c1O)[C@@]1(C(=O)O)CCCC(C)(C)[C@@H]1CC2` [Carnosic acid, carnosic acid]?
V0.5 Normalized tail current ([1]; 0.1 µM): -55.21 ± 0.45 mV; V0.5 Normalized tail current ([1]; 1 µM): -59.60 ± 0.47 mV; V0.5 Normalized tail current ([1]; 3 µM): -63.92 ± 0.74 mV; slowing of deactivation rate ([1]; 3 µM, at −120 mV): > fourfold; change of activation rate ([1]; 3 µM, voltage-independent): doubled; Slope ([1]; 5 µM): 7.61 ± 0.94 mV; V0.5 Normalized tail current ([1]; 5 µM): -63.93 ± 1.08 mV; Slope [1, 7]: 6.70 ± 0.56 mV; V0.5 Normalized tail current [1, 7]: -46.82 ± 0.64 mV; time to saturation of current potentiation upon wash-in ([1]; 5 µM, −60 mV): around 150 s; V0.5 Normalized tail current ([1]; 10 µM): -73.28 ± 1.41 mV; V0.5 Normalized tail current ([1]; 30 µM): -92.58 ± 2.21 mV; Slope ([1]; 100 µM): 9.91 ± 0.62 mV; V0.5 non-normalized tail current ([1]; 100 µM): -111.1 ± 5.75 mV; effect on EM of unclamped oocytes ([1]; 100 µM (hesperidin 30 µM)): hyperpolarized; EC50 ([1]; EC50 EM, EM of unclamped oocytes): 1.19 ± 0.19 µM; EC50 ([1]; EC50 Fold change -60 mV, current increase at −60 mV): 5.43 ± 0.37 µM; EC50 ([1]; EC50 V0.5 Activation, ΔV0.5act): 18 ± 0.72 µM; V0.5 Normalized tail current ([2]; 0.1 µM): -44.63 ± 0.46 mV; V0.5 Normalized tail current ([2]; 1 µM): -45.44 ± 0.41 mV; V0.5 Normalized tail current ([2]; 3 µM): -46.40 ± 0.45 mV; V0.5 Normalized tail current ([2]; 10 µM): -47.94 ± 0.61 mV; V0.5 Normalized tail current ([2]; 30 µM): -49.09 ± 0.55 mV; V0.5 Normalized tail current ([2]; 100 µM): -49.95 ± 0.65 mV; activity across the concentration range tested ([2]; 0.1-100 µM): only weakly active; V0.5 Normalized tail current ([3]; 0.1 µM): -41.03 ± 1.43 mV; V0.5 Normalized tail current ([3]; 1 µM): -44.14 ± 0.95 mV; V0.5 Normalized tail current ([3]; 3 µM): -46.74 ± 0.85 mV; V0.5 Normalized tail current ([3]; 10 µM): -45.67 ± 0.73 mV; V0.5 Normalized tail current ([3]; 30 µM): -45.20 ± 0.88 mV; V0.5 Normalized tail current ([3]; 100 µM): -43.10 ± 0.64 mV; activity across the concentration range tested ([3]; 0.1-100 µM): only weakly active; effect on binding of [35S]tert-butylbicyclophosphorothionate [4]: decrease the binding affinity; oral LD50 [5]: 7100 mg/kg; Slope [6]: 11.55 ± 1.94 mV; V0.5 Normalized tail current [6]: -97.68 ± 3.18 mV; carnosic acid effects compared with KCNQ3* [6]: indistinguishably
